Reference: PubChem BioAssay (NCI)
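Five compound concentrations were applied to cells in 96-well plates for 48 hours; endpoints were derived by simple linear interpolation of the resulting dose-response curve. GI50 marks 50% less growth. TGI denotes the concentration required for complete inhibition of growth.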

Experiments:
Assay in all cases: DTP human tumour cell line panel, 48 h; in the data active means GI50 below about 0.43 µM; inactive means the rest
786-0 renal = system: 786-0 renal
A549 NSCLC = system: A549 NSCLC
CAKI-1 renal = system: CAKI-1 renal
COLO 205 colon = system: COLO 205 colon
DLD-1 colon = system: DLD-1 colon
DMS 114 small cell lung = system: DMS 114 small cell lung
DMS 273 small cell lung = system: DMS 273 small cell lung
EKVX NSCLC = system: EKVX NSCLC
HCC-2998 colon = system: HCC-2998 colon
HCT-116 colon = system: HCT-116 colon
HCT-15 colon = system: HCT-15 colon
HOP-18 NSCLC = system: HOP-18 NSCLC
IGROV1 ovarian = system: IGROV1 ovarian
KM12 colon = system: KM12 colon
KM20L2 colon = system: KM20L2 colon
LOX IMVI melanoma = system: LOX IMVI melanoma
LXFL 529 NSCLC = system: LXFL 529 NSCLC
M14 melanoma = system: M14 melanoma
M19-MEL melanoma = system: M19-MEL melanoma
MALME-3M melanoma = system: MALME-3M melanoma
NCI-H226 lung = system: NCI-H226 lung
NCI-H23 lung = system: NCI-H23 lung
NCI-H460 lung = system: NCI-H460 lung
NCI-H522 lung = system: NCI-H522 lung
OVCAR-3 ovarian = system: OVCAR-3 ovarian
OVCAR-4 ovarian = system: OVCAR-4 ovarian
OVCAR-5 ovarian = system: OVCAR-5 ovarian
OVCAR-8 ovarian = system: OVCAR-8 ovarian
RPMI-8226 leukemia = system: RPMI-8226 leukemia
RXF 393 renal = system: RXF 393 renal
RXF-631 renal = system: RXF-631 renal
SF-268 CNS = system: SF-268 CNS
SF-295 CNS = system: SF-295 CNS
SF-539 CNS = system: SF-539 CNS
SK-MEL-2 melanoma = system: SK-MEL-2 melanoma
SK-MEL-28 melanoma = system: SK-MEL-28 melanoma
SK-MEL-5 melanoma = system: SK-MEL-5 melanoma
SN12C renal = system: SN12C renal
SNB-19 CNS = system: SNB-19 CNS
SNB-75 CNS = system: SNB-75 CNS
SNB-78 CNS = system: SNB-78 CNS
SR leukemia = system: SR leukemia
SW-620 colon = system: SW-620 colon
TK-10 renal = system: TK-10 renal
U251 CNS = system: U251 CNS
UACC-62 melanoma = system: UACC-62 melanoma
UO-31 renal = system: UO-31 renal

CC(N)CN.CC(N)CN.[Cl-].[O]=[Os+2]=[O] (centres undefined)
inactive: GI50 (786-0 renal) 64.5 µM | GI50 (A549 NSCLC) > 100 µM | GI50 (CAKI-1 renal) > 100 µM | GI50 (COLO 205 colon) 70.2 µM | GI50 (DLD-1 colon) > 100 µM | GI50 (DMS 114 small cell lung) 47.6 µM | GI50 (DMS 273 small cell lung) 43.1 µM | GI50 (EKVX NSCLC) > 100 µM | GI50 (HCC-2998 colon) > 100 µM | GI50 (HCT-116 colon) 36.5 µM | GI50 (HCT-15 colon) > 100 µM | GI50 (HOP-18 NSCLC) 25.9 µM | GI50 (IGROV1 ovarian) > 100 µM | GI50 (KM12 colon) > 100 µM | GI50 (KM20L2 colon) 89.6 µM | GI50 (LOX IMVI melanoma) 27 µM | GI50 (LXFL 529 NSCLC) 53.1 µM | GI50 (M14 melanoma) > 100 µM | GI50 (M19-MEL melanoma) 7.59 µM | GI50 (MALME-3M melanoma) > 100 µM | GI50 (NCI-H226 lung) > 100 µM | GI50 (NCI-H23 lung) > 100 µM | GI50 (NCI-H460 lung) > 100 µM | GI50 (NCI-H522 lung) 30.9 µM | GI50 (OVCAR-3 ovarian) 81.4 µM | GI50 (OVCAR-4 ovarian) > 100 µM | GI50 (OVCAR-5 ovarian) > 100 µM | GI50 (OVCAR-8 ovarian) 96.2 µM | GI50 (RPMI-8226 leukemia) 40.3 µM | GI50 (RXF 393 renal) > 100 µM | GI50 (RXF-631 renal) 96.9 µM | GI50 (SF-268 CNS) 77.3 µM | GI50 (SF-295 CNS) > 100 µM | GI50 (SF-539 CNS) > 100 µM | GI50 (SK-MEL-2 melanoma) > 100 µM | GI50 (SK-MEL-28 melanoma) > 100 µM | GI50 (SK-MEL-5 melanoma) 97.2 µM | GI50 (SN12C renal) > 100 µM | GI50 (SNB-19 CNS) > 100 µM | GI50 (SNB-75 CNS) > 100 µM | GI50 (SNB-78 CNS) > 100 µM | GI50 (SR leukemia) 28.6 µM | GI50 (SW-620 colon) 69 µM | GI50 (TK-10 renal) > 100 µM | GI50 (U251 CNS) > 100 µM | GI50 (UACC-62 melanoma) > 100 µM | GI50 (UO-31 renal) 93.3 µM
> 100 µM: TGI (786-0 renal) | TGI (A549 NSCLC) | TGI (CAKI-1 renal) | TGI (COLO 205 colon) | TGI (DLD-1 colon) | TGI (DMS 114 small cell lung) | TGI (DMS 273 small cell lung) | TGI (EKVX NSCLC) | TGI (HCC-2998 colon) | TGI (HCT-116 colon) | TGI (HCT-15 colon) | TGI (HOP-18 NSCLC) | TGI (IGROV1 ovarian) | TGI (KM12 colon) | TGI (KM20L2 colon) | TGI (LOX IMVI melanoma) | TGI (LXFL 529 NSCLC) | TGI (M14 melanoma) | TGI (MALME-3M melanoma) | TGI (NCI-H226 lung) | TGI (NCI-H23 lung) | TGI (NCI-H460 lung) | TGI (NCI-H522 lung) | TGI (OVCAR-3 ovarian) | TGI (OVCAR-4 ovarian) | TGI (OVCAR-5 ovarian) | TGI (OVCAR-8 ovarian) | TGI (RPMI-8226 leukemia) | TGI (RXF 393 renal) | TGI (RXF-631 renal) | TGI (SF-268 CNS) | TGI (SF-295 CNS) | TGI (SF-539 CNS) | TGI (SK-MEL-2 melanoma) | TGI (SK-MEL-28 melanoma) | TGI (SK-MEL-5 melanoma) | TGI (SN12C renal) | TGI (SNB-19 CNS) | TGI (SNB-75 CNS) | TGI (SNB-78 CNS) | TGI (SR leukemia) | TGI (SW-620 colon) | TGI (TK-10 renal) | TGI (U251 CNS) | TGI (UACC-62 melanoma) | TGI (UO-31 renal)
26.3 µM: TGI (M19-MEL melanoma)
